Log data for nine molecules are collected here from ChEMBL document CHEMBL1132579, “Self-organizing molecular field analysis: a tool for structure-activity studies” (J Med Chem, 1999).

The assay has as its target T1, Corticosteroid-binding globulin (Homo sapiens) (UniProt P08185).
T1 sequence (whole entry): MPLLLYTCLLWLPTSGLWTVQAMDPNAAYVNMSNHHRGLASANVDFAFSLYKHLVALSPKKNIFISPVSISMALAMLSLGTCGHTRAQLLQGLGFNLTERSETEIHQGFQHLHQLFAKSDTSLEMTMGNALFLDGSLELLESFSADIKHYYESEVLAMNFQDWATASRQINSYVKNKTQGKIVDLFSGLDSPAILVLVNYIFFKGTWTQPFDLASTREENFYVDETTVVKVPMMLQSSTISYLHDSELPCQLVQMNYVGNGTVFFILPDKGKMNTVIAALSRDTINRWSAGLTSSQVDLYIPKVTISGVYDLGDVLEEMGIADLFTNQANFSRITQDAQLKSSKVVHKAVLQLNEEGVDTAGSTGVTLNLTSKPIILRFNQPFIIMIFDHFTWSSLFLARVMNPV
Briefly: Compound was evaluated for its binding affinity towards the human corticosteroid binding globulin.
With `CC(=O)[C@H]1CC[C@H]2[C@@H]3CCC4=CC(=O)CC[C@]4(C)[C@H]3C(=O)C[C@]12C`, the Log is -6.78 k.

As for `CC(=O)[C@H]1CCC2C3CCC4=CC(=O)CCC4C3CC[C@@]21C` (some centres undefined), the Log was -6.82 k.

Consider `C[C@@H]1C[C@@]2(C)C(=CC1=O)CC[C@H]1[C@@H]3CC[C@](O)(C(=O)CO)[C@@]3(C)C[C@H](O)[C@@]12F`, for which the Log is -5.8 k.

Regarding `CC(=O)[C@@]1(O)[C@H](O)C[C@H]2[C@@H]3CCC4=CC(=O)CC[C@]4(C)[C@H]3CC[C@@]21C`, the Log is -6.25 k.

With `C[C@]12C=CC(=O)C=C1CC[C@@H]1[C@@H]2[C@@H](O)C[C@@]2(C)[C@H]1CC[C@]2(O)C(=O)CO`, the Log is -7.51 k.

In turn, `C[C@]12CC[C@H]3[C@@H](CCC4=CC(=O)CC[C@@H]43)[C@@H]1CC[C@@H]2O` came in with a Log of -6.14 k.

Turning to `CC(=O)[C@H]1[C@H](C)C[C@H]2[C@@H]3CCC4=CC(=O)CC[C@]4(C)[C@H]3CC[C@@]21C`, the Log is -7.12 k.

In turn, `CC(=O)OCC(=O)[C@@]1(O)CCC2C3CCC4=CC(=O)CC[C@]4(C)C3[C@@H](O)C[C@@]21C` (some centres undefined) gave a Log of -7.55 k.

As to `C[C@]12C[C@@H](O)[C@H]3[C@@H](CCC4=CC(=O)CC[C@@]43C)[C@@H]1CC[C@@H]2C(=O)CO`, the Log is -7.2 k.
